Reference: US20190010461A1, “HUMAN PLURIPOTENT STEM CELL-BASED SCREENING FOR SMOOTH MUSCLE CELL DIFFERENTIATION AND DISEASE” (Wisconsin Alumni Research Foundation, priority 2017, published 2019)

Columns and labels:
MYH11-Tom+ cells = experiment: Flow cytometric analysis of MYH11-Tom+ cells in SMC differentiation; format: cell-based, human; conditions: RepSox 25 μM, day 12-24
Method: (§1) Data are represented as mean±standard deviation (SD). […] Scale bar=1 mm. […] Scale bar=50 μm. […] Data are represented as mean±SD. Student's t-test, *: P<0.05, n=3.
FIGS. 7A-7G show the target of RepSox. […] Cells were treated with RepSox (25 μM) or SiRNA. […] Cells were treated with RepSox (25 μM) or SiRNA. […] During the smooth muscle cells differentiation, cells were treated with or without RepSox from day 10-11. […] During the smooth muscle cells differentiation, cells were treated with RepSox for 1 or 20 hours at day 12. […] Cells were treated with RepSox and non-targeting control (NT)/SiRNA at day 10. The RNA was isolated at day 14.
Optimized smooth muscle cell differentiation—Human pluripotent stem cell cells (H1) were cultured in E8 medium on a […]™-coated plate. To achieve the best differentiation results, ES cells were split using EDTA at 1:4 ratios two days before the differentiation. The cells reached 80-90% confluency two days later. At the day of the differentiation, ES cells were dissociated by ACCUTASE™ (Invitrogen) for 3-5 min at 37 ° C. The cells were plated on a […]™-coated plate at 1:4 ratios (1×10^5 cells/cm2). […] An increased CHIR99021 concentration of 3 μM decreased cell proliferation at 36 hours but increased MYH11 expression. At 36 hours, the cells were passaged and seeded on a new […]™-coated plate (1.6×10^4 cells/cm2). The low cell density is critical for the differentiation. A cell density of 1.0-4.0×10^4 cells/cm2 for different cell lines can be tested, such that 100% cell confluence will be achieved at day 6, which gives rise to the best differentiation efficiency. The cells were treated with E6T medium (E8 medium minus FGF2 but still containing 1.7 ng/ml TGF-β1) for 18 hours to induce the transient and medium level expression of MEOX1. E5F medium (E8 medium minus insulin and TGF-β1, but still containing 100 ng/ml FGF2) was used to suppress MEOX1 expression for another 5 days (days 3-8). Next, the cells were treated with E6FVR medium (E6 medium with 100 ng/ml FGF2, 50 ng/ml VEGFA, and 5 μM RESV, a NOTCH agonist) to induce SMC progenitors from day 8-12. E6R (E6 medium+5 μM RESV) medium supplemented with RepSox (25 μM), was then used to further mature SMCs from day 12 to 24. Cells were split (1×10^5 cells/cm2) at day 16 and further differentiated until day 24. The cells can be cryopreserved at day 16 or day 24. For P-SMCs, T-SMCs, and PT-SMCs, RepSox was replaced by PDGF-BB (10 ng/ml), TGF-β1 (1.7 ng/ml), or combination of PDGF-BB and TGF-β1, respectively, from day 12 to 24. From day 0-4: medium was changed every day. From day 2-24: medium was changed every other day. For day 1 and day 8-24, 1.5×volumes of medium, compared to the normal volume used in the well, were used. […]

[1] = system: contractile and ECM genes (MYH11, SMTN, CNN1, ELN, ACTA2, TAGLN, COL1A1); experiment: RT-qPCR of pluripotent stem cell-derived SMCs; format: cell-based, human; conditions: versus previous protocol (Cheung's LM-SMCs)
Source text: as §1
FIGS. 9A-9B show a comparison of MYH11 expression in RepSox-SMCs and Cheung's LM-SMCs. […] Data are normalized to Cheung's LM-SMCs and represented as mean±SD, n=3 for all the samples except fresh human artery (n=2). *, p<0.05, student t-test.
Optimized smooth muscle cell differentiation—Human pluripotent stem cell cells (H1) were cultured in E8 medium on a […]™-coated plate. To achieve the best differentiation results, ES cells were split using EDTA at 1:4 ratios two days before the differentiation. The cells reached 80-90% confluency two days later. At the day of the differentiation, ES cells were dissociated by ACCUTASE™ (Invitrogen) for 3-5 min at 37 ° C. The cells were plated on a […]™-coated plate at 1:4 ratios (1×10^5 cells/cm2). […] An increased CHIR99021 concentration of 3 μM decreased cell proliferation at 36 hours but increased MYH11 expression. At 36 hours, the cells were passaged and seeded on a new […]™-coated plate (1.6×10^4 cells/cm2). The low cell density is critical for the differentiation. A cell density of 1.0-4.0×10^4 cells/cm2 for different cell lines can be tested, such that 100% cell confluence will be achieved at day 6, which gives rise to the best differentiation efficiency. […]

[2] = system: primary human aortic SMCs (AoSMCs)
Source text: Scale bar=500 μm. […] Scale bar=100 μm. […] Data are represented as mean±SD.

intimal hyperplasia = system: intimal hyperplasia
Source text: FIG. 5A depicts the rat balloon injury experiment. H&E staining is shown. Arrowheads indicate the intima. Scale bar=200 μm. […] Scale bar=100 Neointima is highlighted. Red arrows indicate the region with high SMA expression. Yellow arrows indicate the region with low SMA expression. […] Red arrows indicate the region with high MYH11 expression. Yellow arrows indicate the region with low MYH11 expression. […] Red arrows indicate the region with high SM22α expression. Yellow arrows indicate the region with low SM22α expression. […] The “% of high expression”=ratio of “area of high expression”! “total area of intima and media”. Data are represented as mean±SD. […] Scale bar=100 μm. Neointima is highlighted.
Rat carotid artery balloon injury model and periadventitial delivery—This animal study was conducted with approval from the UW-Madison Department of Surgery Animal Care and Use Committee. Briefly, 2 mg (2 animals/group) or 10 mg (3 animals/group) of RepSox (or DMSO) dissolved in Regel (Tri-block gel) (Regel tri-block gel is described in Chen et al. “Unimolecular Micelle-Based Hybrid System for Perivascular Drug Delivery Produces Long-Term Efficacy for Neointima Attenuation in Rats,” Biomacromolecules, 2017 Jun. 14. doi: 10.1021/acs.biomac.7b00617) was applied to the outside of the injured artery segment immediately after balloon injury of the rat carotid artery. Two weeks post-surgery, arteries were collected and sectioned. The ratio of intima area versus media area and lumen area were measured by Image J.
We next examined the function of RepSox in a rat intimal hyperplasia model. In order to reduce any side effect induced by systematic drug delivery, RepSox or DMSO was dissolved in gel and then applied to the outside of the injured artery segment immediately after balloon injury of the rat carotid artery (Shi et al., 2014). Carotid arteries were collected and sectioned 14 days after surgery. […] To test the effect of RepSox, we performed qPCR analysis.

SMILES: Cc1cccc(-c2n[nH]cc2-c2ccc3ncccc3n2)n1 [RepSox, RepSox (SJN 2511)]
- efficiency of SMC differentiation (MYH11-tdTomato+) (MYH11-Tom+ cells): > 95%
- improvement of MYH11 expression (RT-qPCR) [1]: 23 fold
- contractile gene expression of AoSMCs ([2]; 100 μM RepSox for three days versus DMSO): increase
- proliferation rate of AoSMCs ([2]; 100 μM RepSox for two days versus DMSO): reduced
- contraction ability of AoSMCs ([2]; 100 μM RepSox for two days, then 100 μM carbachol): without affecting
- cell migration rate of AoSMCs ([2]; 100 μM RepSox versus DMSO): reduced
- intima/media ratio (intimal hyperplasia; 2 mg or 10 mg RepSox in gel periadventitially, 14 days after surgery, DMSO control 1.5): 0.5
- endothelia cell marker expression (qPCR) (intimal hyperplasia; injured rat carotid artery, versus DMSO): increased
- apoptosis in intima (TUNEL) (intimal hyperplasia; versus DMSO): increased
- expression of contractile proteins SMA, MYH11 and SM22α (intimal hyperplasia; versus DMSO): significantly increased
- proliferation in intima and media layer (immunostaining) (intimal hyperplasia; versus DMSO): decreased proliferation in intima but not media layer
